Assay results as given in US20250230193A1, “CYCLIC COMPOUND HAVING SELECTIVE KRAS INHIBITORY EFFECT ON HRAS AND NRAS” (CHUGAI SEIYAKU KABUSHIKI KAISHA, priority 2022, published 2025).

How the values were obtained:
[1] = target: GDP-bound HRAS wild-type protein (Homo sapiens, UniProt P01112); test: Binding to HRAS by surface plasmon resonance (SPR), Single Cycle Kinetics; details: KD ratio HRAS/KRAS, class symbols
[2] = target: GDP-bound NRAS wild-type protein (Homo sapiens, UniProt P01111); test: Binding to NRAS by surface plasmon resonance (SPR), Single Cycle Kinetics; details: KD ratio NRAS/KRAS, class symbols
Chain of GDP-bound NRAS wild-type protein (P01111 whole entry): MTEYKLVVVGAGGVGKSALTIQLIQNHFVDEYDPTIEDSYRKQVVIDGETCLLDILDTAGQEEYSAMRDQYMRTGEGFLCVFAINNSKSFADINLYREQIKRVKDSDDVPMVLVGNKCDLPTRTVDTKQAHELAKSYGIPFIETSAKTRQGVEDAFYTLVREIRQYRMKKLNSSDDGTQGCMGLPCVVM

Chain of GDP-bound HRAS wild-type protein (P01112 whole entry): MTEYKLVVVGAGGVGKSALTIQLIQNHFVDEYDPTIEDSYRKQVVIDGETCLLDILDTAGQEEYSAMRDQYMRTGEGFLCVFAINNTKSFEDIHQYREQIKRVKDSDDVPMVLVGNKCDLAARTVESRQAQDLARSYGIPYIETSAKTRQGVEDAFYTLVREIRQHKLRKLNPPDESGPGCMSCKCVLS

Row | Compound | HRAS/KRAS (ratio of KD value with respect to GDP-bound HRAS wild-type protein to KD value with respect to KRAS) [1] | NRAS/KRAS (ratio of KD value with respect to GDP-bound NRAS wild-type protein to KD value with respect to KRAS) [2]
1 | CCO[C@@H]1C[C@H]2C(=O)NC3(CC(C)(C)C3)C(=O)N(C)[C@@H](C3CCCCC3)C(=O)N(C)[C@H](C(=O)N(C)C)CC(=O)N(C)[C@@H](COC)C(=O)N[C@@H]([C@@H](C)CC)C(=O)N(C)CC(=O)N(C)[C@H]3C/C=C\CCN(C3=O)[C@@H](Cc3ccc(C(F)(F)F)cc3)C(=O)N(C)CC(=O)N[C@@H](CCc3ccc(Cl)c(Cl)c3)C(=O)N2C1 [PP2661] | A (a compound having 10 or more and less than 20 is denoted as A) | AA (a compound having 20 or more is denoted as AA)
2 | CC[C@H](C)[C@@H]1NC(=O)[C@H](COC)N(C)C(=O)C[C@@H](C(=O)N(C)C)N(C)C(=O)[C@H](C2CCCCC2)N(C)C(=O)C2(CC(C)(C)C2)NC(=O)[C@@H]2C[C@@H](OC(C)C)CN2C(=O)[C@H](CCc2ccc(Cl)c(Cl)c2)NC(=O)CN(C)C(=O)[C@H](Cc2ccc(C(F)(F)F)cc2)N2CC/C=C\C[C@@H](C2=O)N(C)C(=O)CN(C)C1=O [PP2662] | A (a compound having 10 or more and less than 20 is denoted as A) | AA (a compound having 20 or more is denoted as AA)
3 | CC[C@H](C)[C@@H]1NC(=O)[C@H](COC)N(C)C(=O)C[C@@H](C(=O)N2CCCCC2)N(C)C(=O)[C@H](C2CCCC2)N(C)C(=O)C2(CC(C)(C)C2)NC(=O)[C@@H]2C[C@@H](OC3CCC3)CN2C(=O)[C@H](CCc2cc(F)c(C(F)(F)F)c(F)c2)NC(=O)CN(C)C(=O)[C@H](Cc2ccc(C(F)(F)F)cc2)N2CC/C=C\C[C@@H](C2=O)N(C)C(=O)CN(C)C1=O [PP2664] | B (a compound having 3 or more and less than 10 is denoted as B) | A (a compound having 10 or more and less than 20 is denoted as A)
4 | CC[C@H](C)[C@@H]1NC(=O)[C@H](COC)N(C)C(=O)C[C@@H](C(=O)N2CCCCC2)N(C)C(=O)[C@H](C2CCCC2)N(C)C(=O)C2(CC(C)(C)C2)NC(=O)[C@@H]2C[C@@H](OC3CCCC3)CN2C(=O)[C@H](CCc2cc(F)c(C(F)(F)F)c(F)c2)NC(=O)CN(C)C(=O)[C@H](Cc2ccc(C(F)(F)F)cc2)N2CC/C=C\C[C@@H](C2=O)N(C)C(=O)CN(C)C1=O [PP2665] | A (a compound having 10 or more and less than 20 is denoted as A) | A (a compound having 10 or more and less than 20 is denoted as A)
5 | CCO[C@@H]1C[C@H]2C(=O)NC3(CC(C)(C)C3)C(=O)N(C)[C@@H](C3CCCC3)C(=O)N(C)[C@H](C(=O)N3CCCCC3)CC(=O)N(C)[C@@H](COC)C(=O)N[C@@H]([C@@H](C)CC)C(=O)N(C3CC3)CC(=O)N(C)[C@H]3C/C=C\CCN(C3=O)[C@@H](Cc3ccc(C(F)(F)F)cc3)C(=O)N(C)CC(=O)N[C@@H](CCc3cc(F)c(C(F)(F)F)c(F)c3)C(=O)N2C1 [PP2666] | AA (a compound having 20 or more is denoted as AA) | AA (a compound having 20 or more is denoted as AA)
6 | CC[C@H](C)[C@@H]1NC(=O)[C@H](COC)N(C)C(=O)C[C@@H](C(=O)N2CCCCC2)N(C)C(=O)[C@H](C2CCCC2)N(C)C(=O)C2(CC(C)(C)C2)NC(=O)[C@@H]2C[C@@H](OC(C)C)CN2C(=O)[C@H](CCc2cc(F)c(C(F)(F)F)c(F)c2)NC(=O)CN(C)C(=O)[C@H](Cc2ccc(C(F)(F)F)cc2)N2CC/C=C\C[C@@H](C2=O)N(C)C(=O)CN(C2CC2)C1=O [PP2667] | A (a compound having 10 or more and less than 20 is denoted as A) | A (a compound having 10 or more and less than 20 is denoted as A)
7 | CCO[C@@H]1C[C@H]2C(=O)NC3(CC(C)(C)C3)C(=O)N(C)[C@@H](C3CCCC3)C(=O)N(C)[C@H](C(=O)N3CCCCC3)CC(=O)N(C)[C@@H](COC)C(=O)N[C@@H]([C@@H](C)CC)C(=O)N(C)CC(=O)N(C)[C@H]3C/C=C\CCN(C3=O)[C@@H](Cc3ccc(C)cc3)C(=O)N(C)CC(=O)N[C@@H](CCc3cc(F)c(C(F)(F)F)c(F)c3)C(=O)N2C1 [PP2668] | A (a compound having 10 or more and less than 20 is denoted as A) | A (a compound having 10 or more and less than 20 is denoted as A)
8 | CC[C@H](C)[C@@H]1NC(=O)[C@H](COC)N(C)C(=O)C[C@@H](C(=O)N2CCCCC2)N(C)C(=O)[C@H](C2CCCC2)N(C)C(=O)C2(CC(C)(C)C2)NC(=O)[C@@H]2C[C@@H](OC(C)C)CN2C(=O)[C@H](CCc2cc(F)c(C(F)(F)F)c(F)c2)NC(=O)CN(C)C(=O)[C@H](Cc2ccc(C)cc2)N2CC/C=C\C[C@@H](C2=O)N(C)C(=O)CN(C)C1=O [PP2669] | A (a compound having 10 or more and less than 20 is denoted as A) | A (a compound having 10 or more and less than 20 is denoted as A)
9 | CCO[C@@H]1C[C@H]2C(=O)NC3(CC(C)(C)C3)C(=O)N(C)[C@@H](C3CCCC3)C(=O)N(C)[C@H](C(=O)N3CCCCC3)CC(=O)N(C)[C@@H](COC)C(=O)N[C@@H]([C@@H](C)CC)C(=O)N(C)CC(=O)N(C)[C@H]3C/C=C\CCN(C3=O)[C@@H](Cc3ccc(C(F)(F)F)cc3)C(=O)N(C)CC(=O)N[C@@H](CCc3ccc(Cl)c(Cl)c3)C(=O)N2C1 [PP2670] | A (a compound having 10 or more and less than 20 is denoted as A) | AA (a compound having 20 or more is denoted as AA)
10 | CC[C@H](C)[C@@H]1NC(=O)[C@H](COC)N(C)C(=O)C[C@@H](C(=O)N2CCCCC2)N(C)C(=O)[C@H](C2CCCC2)N(C)C(=O)C2(CC(C)(C)C2)NC(=O)[C@@H]2C[C@@H](OC(C)C)CN2C(=O)[C@H](CCc2ccc(Cl)c(Cl)c2)NC(=O)CN(C)C(=O)[C@H](Cc2ccc(C(F)(F)F)cc2)N2CC/C=C\C[C@@H](C2=O)N(C)C(=O)CN(C)C1=O [PP2671] | A (a compound having 10 or more and less than 20 is denoted as A) | A (a compound having 10 or more and less than 20 is denoted as A)
11 | CCO[C@@H]1C[C@H]2C(=O)NC3(CCC3)C(=O)N(C)[C@@H](C3CCCC3)C(=O)N(C)[C@H](C(=O)N(C)C)CC(=O)N(C)[C@@H](CC3CCCC3)C(=O)N[C@@H]([C@@H](C)CC)C(=O)N(C)CC(=O)N(C)[C@H]3C/C=C\CCN(C3=O)[C@@H](Cc3ccc(C)cc3)C(=O)N(C)CC(=O)N[C@@H](CCc3ccc(C(F)(F)F)c(CC)c3)C(=O)N2C1 [PP2672] | B (a compound having 3 or more and less than 10 is denoted as B) | B (a compound having 3 or more and less than 10 is denoted as B)
